From paper PMC3353862
≈ marks a conversion by molar mass, not a printed value. Where two headings read alike, the source gives them in different places.

Tests used:
S. pneumoniae [1] = details: cited from earlier work
E. coli tolC mutants [2] = details: cited from earlier work
[3] = test system: bacterial protein synthesis (aminoacylation/translation system); assay: aminoacylation/translation (A/T) assay; format: biochemical
E. faecalis [4] = details: cited from earlier work
S. aureus [5] = details: cited from earlier work
[6] = test system: E. coli modified with PMBN; details: cited from earlier work
M. catarrhalis [7] = details: Moraxella. catarrhalis; cited from earlier work
H. influenzae [8] = details: Haemophilus influenzae; cited from earlier work
S. aureus [9] = assay: Broth microdilution MIC testing; format: cell-based, Staphylococcus aureus
E. faecalis [10] = assay: Broth microdilution MIC testing; format: cell-based, Enterococcus faecalis; details: for MIC E. fae: E. faecalis
[11] = test system: E. coli modified with PMBN; assay: Broth microdilution MIC testing; format: cell-based, Escherichia coli; details: for MIC E. coli +PMBP: E. coli modified with PMBN
E. coli tolC mutants [12] = assay: Broth microdilution MIC testing; format: cell-based, Escherichia coli; details: for MIC E. coli tolC: E. coli tolC mutants
M. catarrhalis [13] = assay: Broth microdilution MIC testing; format: cell-based, Moraxella catarrhalis
S. pneumoniae [14] = assay: Broth microdilution MIC testing; format: cell-based, Streptococcus pneumoniae; details: for MIC S. pneumo: S. pneumoniae
panel of bacteria = assay: Antibacterial activity against the panel of bacteria (MIC, overall); format: cell-based; details: for MIC (antibacterial activity grade): Table 3; as to MIC (antibacterial activity grade): key: +: poor; ++: moderate; +++: good antibacterial activity
H. influenzae [15] = assay: Broth microdilution MIC testing; format: cell-based, Haemophilus influenzae; details: for MIC H. flu: H. influenzae
[16] = original hits retested, read-out: IC50 (retested in the A/T assay)
[17] = A/T assay, Table 1, read-out: IC50

| SMILES | IC50 [3, 17] [µM] | MIC (antibacterial activity grade) (panel of bacteria) | MIC S. aureus (S. aureus [9]) [µg/mL] | MIC E. fae (E. faecalis [10]) [µg/mL] | MIC E. coli +PMBP [11] [µg/mL] | MIC E. coli tolC (E. coli tolC mutants [12]) [µg/mL] | MIC M. cat (M. catarrhalis [13]) [µg/mL] | MIC S. pneumo (S. pneumoniae [14]) [µg/mL] | MIC H. flu (H. influenzae [15]) [µg/mL] | other results |
| --- | --- | --- | --- | --- | --- | --- | --- | --- | --- | --- |
| Oc1nc(-c2ccccn2)nc2c1CN(Cc1cccc(F)c1)CC2 [Compound 321525] |  |  |  |  |  |  |  |  |  | MIC (S. pneumoniae [1]): 8 µg/mL (≈ 23.8 µM); MIC (E. coli tolC mutants [2]): 8 µg/mL (≈ 23.8 µM); IC50 [3, 16]: 2.8 µM; MIC (E. faecalis [4]): 32 µg/mL (≈ 95.1 µM); MIC (S. aureus [5]): 32 µg/mL (≈ 95.1 µM); MIC [6]: 32 µg/mL (≈ 95.1 µM); MIC (M. catarrhalis [7]): 0.25 µg/mL (≈ 0.743 µM); MIC (H. influenzae [8]): 4 µg/mL (≈ 11.9 µM) |
| COc1cccc(CN2CCc3nc(-c4ccccn4)nc(O)c3C2)c1 [Compound 321528] |  |  |  |  |  |  |  |  |  | MIC (S. pneumoniae [1]): 32 µg/mL (≈ 91.8 µM); MIC (E. coli tolC mutants [2]): 128 µg/mL (≈ 367 µM); IC50 [3, 16]: 1.2 µM; MIC (E. faecalis [4]): 128 µg/mL (≈ 367 µM); MIC (S. aureus [5]): > 128 µg/mL; MIC [6]: 32 µg/mL (≈ 91.8 µM); MIC (M. catarrhalis [7]): 2 µg/mL (≈ 5.74 µM); MIC (H. influenzae [8]): 8 µg/mL (≈ 23 µM) |
| Oc1nc(-c2ccccn2)nc2c1CCN(Cc1ccc(Cl)cc1)C2 [Compound 323338] | 64.4 | +++ |  |  |  |  |  |  |  | MIC (S. aureus [9]; Staphylococcus aureus, read-out: MIC S. aureus): 16 µg/mL (≈ 45.3 µM); MIC (E. faecalis [10]; Enterococcus faecalis, read-out: MIC E. fae): 16 µg/mL (≈ 45.3 µM); MIC ([11]; Escherichia coli, read-out: MIC E. coli +PMBP): 8 µg/mL (≈ 22.7 µM); MIC (E. coli tolC mutants [12]; Escherichia coli, read-out: MIC E. coli tolC): 4 µg/mL (≈ 11.3 µM); MIC (M. catarrhalis [13]; Moraxella catarrhalis): ≤ 0.12 µg/mL; MIC (S. pneumoniae [14]; Streptococcus pneumoniae, read-out: MIC S. pneumo): 4 µg/mL (≈ 11.3 µM); MIC (H. influenzae [15]; Haemophilus influenzae, read-out: MIC H. flu): 2 µg/mL (≈ 5.67 µM) |
| O=c1[nH]c(-c2ccccn2)nc2c1CN(Cc1cc(Cl)cc(Cl)c1)CC2 [Compound 323339] | 19 | +++ | 32 (≈ 82.6 µM) | 64 (≈ 165 µM) | 2 (≈ 5.16 µM) | 2 (≈ 5.16 µM) | ≤0.12 | 4 (≈ 10.3 µM) | 8 (≈ 20.7 µM) |  |
| O=c1[nH]c(-c2ccccn2)nc2c1CN(Cc1cc(Cl)ccc1Cl)CC2 [Compound 323340] | > 300 | +++ | 4 (≈ 10.3 µM) | 16 (≈ 41.3 µM) | 2 (≈ 5.16 µM) | 1 (≈ 2.58 µM) | ≤0.12 | 2 (≈ 5.16 µM) | 1 (≈ 2.58 µM) | biochemical activity in the A/T assay [3]: no inhibitory effect; antibacterial activity (panel of bacteria; panel of bacteria): good antibacterial activity |
| O=c1[nH]c(-c2ccccn2)nc2c1CN(Cc1ccc(Br)cc1)CC2 [Compound 323341] | 41.4 | +++ | 16 (≈ 40.3 µM) | 32 (≈ 80.5 µM) | 16 (≈ 40.3 µM) | 8 (≈ 20.1 µM) | ≤0.12 | 4 (≈ 10.1 µM) | 2 (≈ 5.03 µM) |  |
| O=c1[nH]c(-c2ccccn2)nc2c1CN(Cc1ccc(Cl)c(Cl)c1)CC2 [Compound 323342] | 28.9 | +++ | 32 (≈ 82.6 µM) | 32 (≈ 82.6 µM) | 16 (≈ 41.3 µM) | 4 (≈ 10.3 µM) | ≤0.12 | 2 (≈ 5.16 µM) | 2 (≈ 5.16 µM) |  |
| O=c1[nH]c(-c2ccccn2)nc2c1CN(Cc1ccc(Cl)cc1Cl)CC2 [Compound 323343] | 8.24 | +++ | 8 (≈ 20.7 µM) | 32 (≈ 82.6 µM) | 2 (≈ 5.16 µM) | 4 (≈ 10.3 µM) | ≤0.12 | 2 (≈ 5.16 µM) | 1 (≈ 2.58 µM) |  |
| O=c1[nH]c(-c2ccccn2)nc2c1CN(Cc1cccc(Cl)c1Cl)CC2 [Compound 323344] | 11.6 | +++ | 8 (≈ 20.7 µM) | 32 (≈ 82.6 µM) | 4 (≈ 10.3 µM) | 1 (≈ 2.58 µM) | ≤0.12 | 2 (≈ 5.16 µM) | 4 (≈ 10.3 µM) |  |
